Source: patent publication US20250179094A1, “TGF-B INHIBITOR COMPOUND AND USE THEREOF” (Medinno Pharmaceutical Technology (Zhuhai) Co., Ltd., priority 2022, published 2025)

target: human TGFβR1 (Homo sapiens (Human), UniProt P36897); test: TGFβR1 kinase activity assay (ADP-Glo method); assay type: biochemical; details: ATP 5 uM, TGFβR1tide substrate, 60 minutes at room temperature
Protocol: The principle of the activity assay was that TGFβR1 phosphorylates the substrate TGFβR1tide, consuming ATP in the process. […] The specific experimental steps were as follows. Compounds were diluted 4-fold in DMSO in a dilution plate, with the final starting concentration of the compounds being 10 μM, across 10 concentration gradient points. The compounds were then further diluted 50-fold into the kinase reaction buffer and incubated on a shaker for 20 minutes. Kinase was formulated with an enzyme reaction buffer. 2 μl kinase was added to each well of the reaction plate. 1 μl of the compound diluted in buffer was added to each well, and then the plate was sealed with a sealing membrane and centrifuged at 1000 g for 30 seconds, leaving it at room temperature for 10 minutes. Solutions of TGFβR1tide and ATP were prepared with the kinase reaction buffer, and 2 μL of the TGFβR1tide/ATP solution was added to the reaction plate. The plate was sealed with a sealing film and centrifuged at 1000 g for 30 seconds. It was allowed to react at room temperature for 60 minutes. Subsequently, 4 μL of ADP-Glo was transferred to a 384-well reaction plate and centrifuged at 1000 rpm/min for 1 minute, followed by incubation at 25° C. for 40 minutes. Then, 8 μL of Detection solution was transferred to the 384-well reaction plate and centrifuged at 1000 rpm/min for 1 minute, after which it was incubated at 25° C. for 40 minutes. The RLU (Relative Luminescence Unit) signal was read using a BMG microplate reader, which was used to characterize the degree of kinase activity.
3.1 The inhibition rate was calculated as follows: inhibition rate of compound (% inh)=100%−(compound−positive control)/(negative control−positive control)*100%.
The IC50 (half inhibition concentration) of a compound was obtained using the following non-linear fitting equation, wherein data analysis was performed using Graphpad 7.0 software.
X: log value of compound concentration; and Y: inhibition rate (% inhibition)

Chain of human TGFβR1 (P36897 34-503): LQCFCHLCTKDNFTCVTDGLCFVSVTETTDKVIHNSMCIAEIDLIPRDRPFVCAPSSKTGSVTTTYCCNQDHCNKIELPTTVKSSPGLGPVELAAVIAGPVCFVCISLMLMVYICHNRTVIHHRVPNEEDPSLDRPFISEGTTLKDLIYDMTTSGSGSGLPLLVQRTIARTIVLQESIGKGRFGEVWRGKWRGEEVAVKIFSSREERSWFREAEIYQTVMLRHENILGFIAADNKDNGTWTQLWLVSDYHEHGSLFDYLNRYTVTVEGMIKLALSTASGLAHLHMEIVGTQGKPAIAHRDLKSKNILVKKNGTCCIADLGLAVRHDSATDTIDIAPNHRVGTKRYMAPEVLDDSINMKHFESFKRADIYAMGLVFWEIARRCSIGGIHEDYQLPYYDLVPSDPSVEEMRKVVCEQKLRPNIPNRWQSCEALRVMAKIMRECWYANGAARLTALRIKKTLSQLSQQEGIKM

CC(=O)N1Cc2nc(-c3cc(-c4c(-c5cccc(C)n5)nc5n4CCC5)ccn3)[nH]c2C1 [Compound 1, 1-(2-(4-(2-(6-methylpyridin-2-yl)-6,7-dihydro-5H-pyrrolo[1,2-a]imidazol-3-yl)pyridin-2-yl)-4,6-dihydropyrrolo[3,4-d]imidazol-5(1H)-yl)ethan-1-one] and CNC(=O)N1Cc2nc(-c3cc(-c4c(-c5cccc(C)n5)nc5n4CCC5)ccn3)[nH]c2C1 [Compound 28] are within 1.5-fold of each other in IC50: 21 nM for the first, 19 nM for the second.

First: Cc1cccc(-c2nc3n(c2-c2ccnc(-c4nc5c([nH]4)CNC5)c2)CCC3)n1 [Compound 2, 2-(4-(2-(6-methylpyridin-2-yl)-6,7-dihydro-5H-pyrrolo[1,2-a]imidazol-3-yl)pyridin-2-yl)-1,4,5,6-tetrahydropyrrolo[3,4-d]imidazole]
Second: Cc1cccc(-c2nc3n(c2-c2ccnc(-c4nc5c([nH]4)CN(C)C5)c2)CCC3)n1 [Compound 3, 5-methyl-2-(4-(2-(6-methylpyridin-2-yl)-6,7-dihydro-5H-pyrrolo[1,2-a]imidazol-3-yl)pyridin-2-yl)-1,4,5,6-tetrahydropyrrolo[3,4-d]imidazole]
The IC50 of the first is 3.1-fold higher: 23 nM for the first, 7.4 nM for the second. The second is the more potent here.

First: Cc1cccc(-c2nc3n(c2-c2ccnc(-c4nc5c([nH]4)CN(C(=O)N4CCN(C)CC4)C5)c2)CCC3)n1 [Compound 4, (4-methylpiperazin-1-yl)(2-(4-(2-(6-methylpyridin-2-yl)-6,7-dihydro-5H-pyrrolo[1,2-a]imidazol-3-yl)pyridin-2-yl)-4,6-dihydropyrrolo[3,4-d]imidazol-5(1H)-yl)ketone]
Second: Cc1cccc(-c2nc3n(c2-c2ccnc(-c4nc5c([nH]4)CN(C(=O)N4CCOCC4)C5)c2)CCC3)n1 [Compound 14]
The IC50 of the first is 2.1-fold lower: 3.8 nM for the first, 7.9 nM for the second. The first is the more potent here.

Cc1cccc(-c2nc3n(c2-c2ccnc(-c4nc5c([nH]4)CN(S(C)(=O)=O)C5)c2)CCC3)n1 [Compound 9, 2-(4-(2-(6-Methylpyridin-2-yl)-6,7-dihydro-5H-pyrrolo[1,2-a]imidazol-3-yl)pyridin-2-yl)-5-(methylsulfonyl)-1,4,5,6-tetrahydropyrrolo[3,4-d]imidazole] and COC(=O)N1Cc2nc(-c3cc(-c4c(-c5cccc(C)n5)nc5n4CCC5)ccn3)[nH]c2C1 [Compound 30, Methyl 2-(4-(2-(6-Methylpyridin-2-yl)-6,7-dihydro-5H-pyrrolo[1,2-alimidazol-3-yl)pyridin-2-yl)-4,6-dihydropyrrolo[3,4-d]imidazol-5(1H)-carboxylate] are within 1.5-fold of each other in IC50: 5.4 nM for the first, 5.7 nM for the second.

Going from Cc1cccc(-c2nc3n(c2-c2ccnc(-c4nc5c([nH]4)CN(C(=O)C4CC(O)C4)C5)c2)CCC3)n1 (stereo not shown) [Compound 10, (3-Hydroxycyclobutyl)(2-(4-(2-(6-methylpyridin-2-yl)-6,7-dihydro-5H-pyrrolo[1,2-a]imidazol-3-yl)pyridin-2-yl)-4,6-dihydropyrrolo[3,4-d]imidazol-5(1H)-yl)ketone] to Cc1cccc(-c2nc3n(c2-c2ccnc(-c4nc5c([nH]4)CN(CC4CC(O)C4)C5)c2)CCC3)n1 (stereo not shown) [Compound 26, 3-((2-(4-(2-(6-Methylpyridin-2-yl)-6,7-dihydro-5H-pyrrolo[1,2-a]imidazol-3-yl)pyridin-2-yl)-4,6-dihydropyrrolo[3,4-d]imidazol-5(1H)-yl)methyl)cyclobutanol], the IC50 rises from 2.2 nM to 4.1 nM (1.9-fold).

Going from Cc1cccc(-c2nc3n(c2-c2ccnc(-c4nc5c([nH]4)CN(C(=O)c4cnn(C)c4)C5)c2)CCC3)n1 [Compound 11, (1-Methyl-1H-pyrazol-4-yl)(2-(4-(2-(6-methylpyridin-2-yl)-6,7-dihydro-5H-pyrrolo[1,2-a]imidazol-3-yl)pyridin-2-yl)-4,6-dihydropyrrolo[3,4-d]imidazol-5(1H)-yl)ketone] to Cc1cccc(-c2nc3n(c2-c2ccnc(-c4nc5c([nH]4)CN(C(=O)N(C)C)C5)c2)CCC3)n1 [Compound 29, N,N-Dimethyl-2-(4-(2-(6-methylpyridin-2-yl)-6,7-dihydro-5H-pyrrolo[1,2-a]imidazol-3-yl)pyridin-2-yl)-4,6-dihydropyrrolo[3,4-d]imidazol-5(1H)-carboxamide], the IC50 falls from 11.6 nM to 0.18 nM (64-fold).

Going from Cc1cccc(-c2nc3n(c2-c2ccnc(-c4nc5c([nH]4)CN(CC(C)O)C5)c2)CCC3)n1 (stereo not shown) [Compound 12, 1-(2-(4-(2-(6-Methylpyridin-2-yl)-6,7-dihydro-5H-pyrrolo[1,2-a]imidazol-3-yl)pyridin-2-yl)-4,6-dihydropyrrolo[3,4-d]imidazol-5(1H)-yl)propan-2-ol] to CCN(C)C(=O)N1Cc2nc(-c3cc(-c4c(-c5cccc(C)n5)nc5n4CCC5)ccn3)[nH]c2C1 [Compound 32, N-Ethyl-N-methyl-2-(4-(2-(6-methylpyridin-2-yl)-6,7-dihydro-5H-pyrrolo[1,2-a]imidazol-3-yl)pyridin-2-yl)-4,6-dihydropyrrolo[3,4-d]imidazol-5(1H)-carboxamide], the IC50 falls from 4.3 nM to 2.3 nM (1.9-fold). The second is the more potent here.

First: Cc1cccc(-c2nc3n(c2-c2ccnc(-c4nc5c([nH]4)CN(C4CCN(C)CC4)C5)c2)CCC3)n1 [Compound 13, 5-(1-Methylpiperidin-4-yl)-2-(4-(2-(6-methylpyridin-2-yl)-6,7-dihydro-5H-pyrrolo[1,2-a]imidazol-3-yl)pyridin-2-yl)-1,4,5,6-tetrahydropyrrolo[3,4-d]imidazole]
Second: Cc1cccc(-c2nc3n(c2-c2ccnc(-c4nc5c([nH]4)CN(C4CCC(O)CC4)C5)c2)CCC3)n1 (stereo not shown) [Compound 25, 4-(2-(4-(2-(6-Methylpyridin-2-yl)-6,7-dihydro-5H-pyrrolo[1,2-a]imidazol-3-yl)pyridin-2-yl)-4,6-dihydropyrrolo[3,4-d]imidazol-5(1H)-yl)cyclohexan-1-ol]
The IC50 of the first is 2.1-fold lower: 11.9 nM for the first, 25 nM for the second. The first is the more potent here.

Cc1cccc(-c2nn(C)cc2-c2ccnc(-c3nc4c([nH]3)CN(S(C)(=O)=O)C4)c2)n1 [Compound 39, 2-[4-(1-Methyl-3-(6-methylpyridin-2-yl)-1H-pyrazol-4-yl)pyridin-2-yl]-5-(methylsulfonyl)-1,4,5,6-tetrahydropyrrolo[3,4-d]imidazole] and Cc1cccc(-c2nn(C(C)C)cc2-c2ccnc(-c3nc4c([nH]3)CN(S(C)(=O)=O)C4)c2)n1 [Compound 46, 2-[4-(1-Isopropyl-3-(6-methylpyridin-2-yl)-1H-pyrazol-4-yl)pyridin-2-yl]-5-(methylsulfonyl)-1,4,5,6-tetrahydropyrrolo[3,4-d]imidazole] are within 1.5-fold of each other in IC50: 2 nM for the first, 1.7 nM for the second.

Compared with Cc1cccc(-c2nn(C)cc2-c2ccnc(-c3nc4c([nH]3)CN(C(=O)C3CC(O)C3)C4)c2)n1 (stereo not shown) [Compound 42, (3-Hydroxycyclobutyl)(2-(4-(1-methyl-3-(6-methylpyridin-2-yl)-1H-pyrazol-4-yl)pyridin-2-yl)-4,6-dihydropyrrolo[3,4-d]imidazol-5(1H)-yl)ketone], Cc1cccc(-c2nn(CC3CC(O)C3)cc2-c2ccnc(-c3nc4c([nH]3)CN(S(C)(=O)=O)C4)c2)n1 (stereo not shown) [Compound 49, 3-((3-(6-Methylpyridin-2-yl)-4-(2-(5-(methylsulfonyl)-1,4,5,6-tetrahydropyrrolo[3,4-d]imidazol-2-yl)pyridin-4-yl)-1H-pyrazol-1-yl)methyl)cyclobutanol] is 9-fold lower in IC50: 27 nM for the first, 3 nM for the second. The second is the more potent here.

First: Cc1cccc(-c2nn(CC(C)O)cc2-c2ccnc(-c3nc4c([nH]3)CNC4)c2)n1 (stereo not shown) [Compound 44, 3-(3-(6-Methylpyridin-2-yl)-4-(2-(1,4,5,6-tetrahydropyrrolo[3,4-d]imidazol-2-yl)pyridin-4-yl)-1H-pyrazol-1-yl)propan-2-ol]
Second: Cc1cccc(-c2nn(CC3CC3)cc2-c2ccnc(-c3nc4c([nH]3)CN(S(C)(=O)=O)C4)c2)n1 [Compound 47, 2-[4-(1-(Cyclopropylmethyl)-3-(6-methylpyridin-2-yl)-1H-pyrazol-4-yl)pyridin-2-yl]-5-(methylsulfonyl)-1,4,5,6-tetrahydropyrrolo[3,4-d]imidazole]
The IC50 of the first is 1.8-fold higher: 6.2 nM for the first, 3.4 nM for the second.

Compared with Cc1cccc(-c2nn(Cc3ccccc3)cc2-c2ccnc(-c3nc4c([nH]3)CN(S(C)(=O)=O)C4)c2)n1 [Compound 48, 2-[4-(1-Benzyl-3-(6-methylpyridin-2-yl)-1H-pyrazol-4-yl)pyridin-2-yl]-5-(methylsulfonyl)-1,4,5,6-tetrahydropyrrolo[3,4-d]imidazole], Cc1cccc(-c2nn(Cc3ccccc3F)cc2-c2ccnc(-c3nc4c([nH]3)CN(S(C)(=O)=O)C4)c2)n1 [Compound 51, 2-[4-(1-(2-Fluorobenzyl)-3-(6-methylpyridin-2-yl)-1H-pyrazol-4-yl)pyridin-2-yl]-5-(methylsulfonyl)-1,4,5,6-tetrahydropyrrolo[3,4-d]imidazole] is 3.5-fold higher in IC50: 1.6 nM for the first, 5.6 nM for the second.

Cc1cccc(-c2nn(Cc3ccc(F)cc3)cc2-c2ccnc(-c3nc4c([nH]3)CN(S(C)(=O)=O)C4)c2)n1 [Compound 50, 2-[4-(1-(4-Fluorobenzyl)-3-(6-methylpyridin-2-yl)-1H-pyrazol-4-yl)pyridin-2-yl]-5-(methylsulfonyl)-1,4,5,6-tetrahydropyrrolo[3,4-d]imidazole] showed an IC50 of 2.2 nM.
